Test results taken from PubChem BioAssay AID280 (DTP/NCI, 2004).
Inconclusive results and toxic doses are left out.

Test system: nude mice, LOX melanoma ip, survival T/C
Assay: NCI In Vivo Anticancer Drug Screen. Data for tumor model Human Amelanotic Melanoma (LOX) (intraperitoneal) in NU/NU BALB/C (nude) mice
Settings: endpoint: median survival time, higher = longer survival
Procedure: The antitumor activity of compounds was measured in mice bearing transplantable tumors. Survival or tumor size were measured and the results are expressed as the measurement made in the treated group (T) divided by the measurement made in the vehicle treated control group (C). The tumor model used in this assay is Human Amelanotic Melanoma (LOX) (intraperitoneal) in NU/NU BALB/C (nude) mice

[1] = dose: 50.0 mg/kg/injection, schedule: Q04DX003 (ip), vehicle: Klucel (hydroxypropylcellulose) (HPC)
[2] = dose: 100.0 mg/kg/injection, schedule: Q04DX003 (ip), vehicle: Klucel (hydroxypropylcellulose) (HPC)

For `O=NN(CCCl)C(=O)NCCCl`, the T/C (dose: 1.88 mg/kg/injection, schedule: Q01DX005 (ip), vehicle: saline + alcohol) was 122 % of control, the T/C (dose: 2.5 mg/kg/injection, schedule: Q01DX015 (ip), vehicle: saline + alcohol) was 185 % of control and the T/C (dose: 3.75 mg/kg/injection, schedule: Q01DX005 (ip), vehicle: saline + alcohol) was 163 % of control. The T/C (dose: 5.0 mg/kg/injection, schedule: Q01DX001 (ip), vehicle: saline + alcohol) was 117 % of control, the T/C (dose: 5.0 mg/kg/injection, schedule: Q01DX015 (ip), vehicle: saline + alcohol) was 193 % of control and the T/C (dose: 7.5 mg/kg/injection, schedule: Q01DX005 (ip), vehicle: saline + alcohol) was 218 % of control. The T/C (dose: 10.0 mg/kg/injection, schedule: Q04DX003 (ip), vehicle: saline + alcohol) was 185 % of control, the T/C (dose: 12.0 mg/kg/injection, schedule: Q04DX003 (ip), vehicle: saline + alcohol) was 118 % of control and the T/C (dose: 12.0 mg/kg/injection, schedule: Q04DX003 (iv), vehicle: saline + alcohol) was 220 % of control. The T/C (dose: 15.0 mg/kg/injection, schedule: Q01DX005 (ip), vehicle: saline + alcohol) was 191 % of control, the T/C (dose: 18.0 mg/kg/injection, schedule: Q04DX003 (ip), vehicle: saline + alcohol) was 116 % of control and the T/C (dose: 18.0 mg/kg/injection, schedule: Q04DX003 (iv), vehicle: saline + alcohol) was 331 % of control. For the same compound, the T/C (dose: 20.0 mg/kg/injection, schedule: Q01DX001 (ip), vehicle: saline + alcohol) was 177 % of control, the T/C (dose: 20.0 mg/kg/injection, schedule: Q04DX003 (ip), vehicle: saline + alcohol) was 175 % of control and the T/C (dose: 27.0 mg/kg/injection, schedule: Q04DX003 (ip), vehicle: saline + alcohol) was 116 % of control. For the same compound, the T/C (dose: 27.0 mg/kg/injection, schedule: Q04DX003 (iv), vehicle: saline + alcohol) was 331 % of control, the T/C (dose: 40.0 mg/kg/injection, schedule: Q01DX001 (ip), vehicle: saline + alcohol) was 171 % of control and the T/C (dose: 40.0 mg/kg/injection, schedule: Q04DX003 (ip), vehicle: saline + alcohol) was 218 % of control. For the same compound, the T/C (dose: 80.0 mg/kg/injection, schedule: Q01DX001 (ip), vehicle: saline + alcohol) was 196 % of control.
For `O=c1[nH]cnc2c1cnn2CN1CCOCC1`, the T/C (dose: 25.0 mg/kg/injection, schedule: Q04DX003 (ip), vehicle: Klucel (hydroxypropylcellulose) (HPC)) was 93 % of control, the T/C [1] was 123 % of control and the T/C [2] was 109 % of control.
With `COC(=O)C1(F)C(=O)NC(=O)NC1OC` (stereo unspecified) the T/C [1] was 110 % of control, the T/C [2] was 98 % of control and the T/C (dose: 200.0 mg/kg/injection, schedule: Q04DX003 (ip), vehicle: Klucel (hydroxypropylcellulose) (HPC)) was 92 % of control. The T/C (dose: 400.0 mg/kg/injection, schedule: Q04DX003 (ip), vehicle: Klucel (hydroxypropylcellulose) (HPC)) was 104 % of control and the T/C (dose: 800.0 mg/kg/injection, schedule: Q04DX003 (ip), vehicle: Klucel (hydroxypropylcellulose) (HPC)) was 94 % of control.
`O=c1[nH]cnc2c1nnn2C1OC(CO)C(O)C1O` (stereo unspecified) was tested, and the T/C (dose: 180.0 mg/kg/injection, schedule: Q04DX003 (ip), vehicle: suspension in saline) was 123 % of control and the T/C (dose: 833.0 mg/kg/injection, schedule: Q04DX003 (ip), vehicle: suspension in saline) was 153 % of control.
For `CC(=O)c1cccc(NC2C(N)C(NC(=O)N(C)C)(C(C)O)C(C)(O)C2(O)COC(=O)c2c(C)cccc2O)c1` (stereo unspecified), the T/C (dose: 12.5 mg/kg/injection, schedule: Q04DX003 (ip), vehicle: suspension in saline) was 173 % of control.
For `Nc1ncc(C2OC(CO)C(O)C2O)c(=O)[nH]1` (stereo unspecified), the T/C (dose: 62.5 mg/kg/injection, schedule: Q04DX003 (ip), vehicle: saline) was 112 % of control, the T/C (dose: 125.0 mg/kg/injection, schedule: Q04DX003 (ip), vehicle: saline) was 109 % of control and the T/C (dose: 250.0 mg/kg/injection, schedule: Q04DX003 (ip), vehicle: saline) was 100 % of control.
For `COc1cc2c(cc1OC)-c1c3c(cc4c1[C@@H](C2)N(C)CC4)OCO3`, the T/C (dose: 32.0 mg/kg/injection, schedule: Q04DX003 (ip), vehicle: distilled water + Tween-80 + alcohol) was 115 % of control, the T/C (dose: 90.0 mg/kg/injection, schedule: Q04DX003 (ip), vehicle: distilled water + Tween-80 + alcohol) was 109 % of control and the T/C (dose: 150.0 mg/kg/injection, schedule: Q04DX003 (ip), vehicle: distilled water + Tween-80 + alcohol) was 123 % of control.
